Measured values reported in US20060004086A1, “Method of reducing Abeta42 and treating diseases” (Mayo Foundation for Medical Education and Research, priority 2000, published 2006).
Read-outs that look alike come from different tables or passages of the source.

Key:
COX-1/COX-2 = settings: cited from earlier work
[1] = plasma concentration of the drug; cited from earlier work
Aβ42 secretion [2] = assay: Non-selective and selective COX-inhibitors tested for effect on Aβ42 levels in cell cultures (Table 1 summary); format: cell-based; settings: for Aβ42/Aβ40 ratio: effect up to the highest conc. tested listed per drug in Table 1
Method: All measurements were performed in duplicate.
(§1) Aβ40 and Aβ42 levels in cell culture supernatants were analyzed using ELISA. Aβ42/Aβ40 ratios and total Aβ levels were normalized to values obtained from DMSO-treated cultures. […] NSAIDs were verified using NMR and mass spectrometry.

Aβ42 secretion [3] = assay: Aβ40/Aβ42 ELISA of culture supernatants, CHO cells expressing APP751; format: cell-based, Chinese hamster
Method: (§2) Cell cultures were maintained in standard cell culture media supplemented with 10% fetal bovine serum and 100 U/mL penicillin/streptomycin (Life Technologies Inc., Germany).
(§3) For analyses of Aβ secretion, APP processing, and notch cleavage, cells were cultured in serum-containing media and pretreated overnight with a specific NSAID. The next day, media were changed and cultures were treated with the same NSAID for another 24 hours.
(§4) Aβ was detected by sandwich enzyme-linked immunosorbent assay (ELISA) as described by Murphy et al. (2000) J Biol Chem 275:26277-84. Following NSAID treatment, culture supernatants were collected, and cell debris was removed by centrifugation. Complete protease inhibitor cocktail (Roche Molecular Biochemicals, IN, USA) was added to the media and Aβ40 and Aβ42 levels were quantified using end-specific Aβ ELISAs. All measurements were performed in duplicate.
The effect of sulindac sulfone on Aβ42 secretion was examined. Sulindac sulfone is an oxidation product of the pro-drug sulindac. […] Cell cultures were treated with increasing concentrations of sulindac sulfone. Aβ40 and Aβ42 levels in culture supernatants were analyzed using ELISA.
as §1

Aβ42 secretion [4] = assay: Primary in vitro screen, CHO-APP695NL,I,his cells, end-specific Aβ40 and Aβ42 ELISAs; format: cell-based, Chinese hamster; settings: Cricetulus griseus, 6 h
Method: Aβ40 and Aβ42 levels in culture supernatants were determined for each time points using ELISA.
In a primary screen, the effects of NSAIDs on Aβ42 secretion by a CHO cell line that expressed APP(CHO-APP695NL,I,his) were examined. Duplicate cell cultures were treated with (a) a vehicle, (b) 10 μM of NSAID, or (c) 100 μM of NSAID.
To determine Aβ40 and Aβ42 levels, six-hour culture supernatants taken from cells grown in a single well of a twenty-four-well plate were used in end-specific Aβ40 and Aβ42 ELISAs (Suzuki, et al. (1994) Sci 264:[…]). Aβ40 and Aβ42 levels of cultures treated with NSAID were compared with those of cultures treated with the vehicle alone. […] NSAIDs that caused either selective reduction of Aβ42 levels or reduction in both Aβ40 and Aβ42 levels are subjected to a secondary screen.

[5] = test system: Notch intramembrane cleavage; assay: Notch intramembrane cleavage and NICD formation in HEK293 cells; format: cell-based; settings: for inhibition of Notch cleavage: data not shown
Excerpt: Two Notch-encoding vector constructs were used in examining Notch processing. These were a construct expressing a myc-tagged NH2-terminal truncated Notch-1 polypeptide (NotchΔEMV), and a construct expressing only the Notch intracellular cytoplasmic domain (NICD) (see Kopan et al. (1996) Proc Natl Acad Sci USA 93:1683-8). In the construct expressing a myc-tagged NH2-terminal truncated Notch-1 polypeptide, the start codon, a methionine at position 1726, was mutated to a valine to eliminate translation initiation.
Notch intramembrane cleavage and formation of NICD were analyzed in kidney HEK293 cells. The myc-tagged NotchΔEMV construct encoding a constitutively cleaved Notch variant was transiently transfected into HEK293 cells. […] Then they were pulse labeled with ^35S-methionine for thirty minutes and chased for two hours. Cell lysates were prepared and subjected to immunoprecipitation with monoclonal antibody 9E10. Immunoprecipitated proteins were subjected to SDS-PAGE and phosphor imaging analyses.

APP processing = assay: Western blot of APP, APP CTFs and sAPP, CHO cells expressing APP751; format: cell-based, Chinese hamster; settings: for accumulation of APP-CTFs: data not shown
Excerpt: Expression of holo-APP and APP C-terminal fragments (CTFs) was examined by Western blot analysis using antibody CT-15. APP secretion was examined by Western blotting using a mixture of 5A3/IG7 antibodies. APP turnover was examined by pulse labeling of CHO cells with 150 μCi [^35S]-methionine for fifteen minutes followed by a cold chase step for up to four hours. Cell lysates were immunoprecipitated with antibody CT-15, subjected to SDS-PAGE, and analyzed by phosphor imaging.
Cell lysates were prepared, and steady-state APP levels were examined using 4-12% gradient-gel electrophoresis and western blotting using the polyclonal antibody CT15.

Aβ levels in the brain = settings: long-term transgenic mouse studies; cited from earlier work
[6] = test system: brain Aβ42 levels in Tg2576 mice; assay: Acute oral dosing of three-month-old Tg2576 mice, brain Aβ ELISA; format: in vivo, mouse; settings: Tg2576 mice
Method: NSAIDs were dissolved in an appropriate vehicle. Dimethyl sulfoxide (DMSO), ethanol, and ethyl acetate are some examples. The NSAID solution was mixed with Kool-Aid and administered orally using a medicine dropper. […] At two hours after the final doses were administered, animals were sacrificed, and SDS soluble Aβ40 and Aβ42 were analyzed using ELISA.
Three month old mice have high levels of soluble Aβ in the brain but no Aβ deposition (see Hsiao et al. (1996) Science 274:99-102). […] Brain levels of SDS-soluble Aβ40 and Aβ42 were measured using ELISA.
Compounds were administered orally.

Aβ42 secretion [7] = assay: Aβ40/Aβ42 ELISA of culture supernatants, CHO cells expressing APP751 and PS-1 mutant M146L; format: cell-based, Chinese hamster
Method: as §2, §3, §4
(§5) Levels of Aβ40 and Aβ42 in culture supernatants were analyzed using ELISA. […] Aβ42/Aβ40 ratios and total Aβ levels (i.e., the sum of Aβ40 and Aβ42 values) were normalized to values obtained from DMSO-treated cells. Results shown were averages of two or three experiments performed in duplicate.
Aβ40 and Aβ42 levels in culture supernatants were analyzed using ELISA as described in Example 3. […] Aβ42/Aβ40 ratios and total Aβ levels were normalized to values obtained from ethanol-treated cells. Results shown were averages of two or three experiments, each performed in duplicate.

Aβ42 secretion [8] = assay: Aβ ELISA, primary fibroblasts from COX-1/COX-2 double-knockout mice expressing APP695; format: cell-based; settings: primary mouse embryonic fibroblasts; data not shown
Excerpt: as §2, §4

CHO or HS683 cells = assay: NSAID cell toxicity, MTT-assay or [3H]-thymidine incorporation assay; settings: concentrations up to 100 μM; data not shown
Excerpt: NSAID toxicity in CHO or HS683 cells was examined using standard MTT-assay (3-(4,5-Dimethyl-2-thiazolylyl)-2,5-diphenyl-2H-tetrazolium Bromide) or [^3H]-thymidine incorporation assay.

Aβ42 secretion [9] = assay: Aβ secretion in kidney HEK293 cells; format: cell-based; settings: data not shown
Method: as §2, §3, §4, §5

Aβ species [10] = assay: Immunoprecipitation/mass spectrometry of secreted Aβ species, CHO cells expressing APP751; format: cell-based, Chinese hamster
Method: Secretion of Aβ peptides was analyzed using immunoprecipitation/mass spectrometry as described by Wang et al. (1996) J Biol Chem 271:31894-902. Briefly, 1 mL amount of culture supernatant was subjected to immunoprecipitation using the monoclonal antibody 4G8 (Senetek, CA, USA). Molecular masses and concentrations of Aβ peptides were measured using a matrix assisted laser desorption/ionization time-of-flight (MALDI-TOF) mass spectrometer. To compare the concentrations of individual Aβ species in culture supernatants, synthetic Aβ12-28 peptides (Sigma, MO, USA) were added to the supernatant samples as internal standards and relative peak heights were calculated.
To examine Aβ species secreted by cells treated with sulindac sulfide, immunoprecipitation and mass spectrometry analyses were performed. […] Various Aβ species including Aβ1-42, Aβ1-39, Aβ1-38, and Aβ1-37 were quantified. […] Duplicate measurements were used in generating the bar graph. […] Increases in Aβ1-38 levels were dose-dependent.

Aβ species [11] = assay: Bicine/Urea Aβ western blot, CHO cells expressing APP751 and mutant PS-1; format: cell-based, Chinese hamster; settings: 60 μM or 80 μM, compared with DMSO
Method: Bicine/Urea Aβ western blot analysis was performed as described by Wiltfang et al. (1997) Electrophoresis 18:527-32. A 1 mL amount of culture supernatant was subjected to immunoprecipitation using monoclonal antibody 26D6. Immunoprecipitates were mixed with sample buffer and heated to 95° C. for five minutes. Eluant samples were separated on Bicine/Urea gels, then transferred to nitrocellulose membranes, and probed with antibody 26D6. Standard Aβ1-40, Aβ1-42 and Aβ1-38 peptides (Sigma, MO, USA) were used for identification of the Aβ species.
AP polypeptides were immunoprecipitated from culture supernatants of CHO cells expressing APP751 and mutant PS-1. Immunoprecipitates were separated on an SDS-urea gel system that can resolve individual Aβ species (see Wiltfang et al. (1997) Electrophoresis 18:527-32). Standard Aβ1-38, Aβ1-40, and Aβ1-42 peptides were included for identification of different Aβ species.

[12] = six-hour culture supernatants, read-out: % Control % Aβ42
[13] = six-hour culture supernatants, read-out: % Control Aβ40
[14] = six-hour culture supernatants, read-out: % Control Aβ42
[15] = 10 μM, six-hour culture supernatants, read-out: % Control % Aβ42
[16] = 10 μM, six-hour culture supernatants, read-out: % Control Aβ40
[17] = 10 μM, six-hour culture supernatants, read-out: % Control Aβ42
[18] = three month-old, 50 mg/kg/day orally for three days, SDS-soluble, mean ± SD
[19] = treatment for three days, 50 mg/kg/day
[20] = cell cultures, cell line and concentration not stated

## CC(=O)Oc1ccccc1C(=O)O [Aspirin, Acetylsalicylic acid]
COX-1/COX-2
  COX-1/COX-2 selectivity# (1 = equal activity): 166
[1]
  Plasma: 111 µM
Aβ42 secretion [2]
  Aβ42/Aβ40 ratio: no effect
Aβ42 secretion [3]; concentrations of up to 3 mM, data not shown
  Aβ42 secretion: no reductions in Aβ42 secretion were observed
Aβ42 secretion [4]; [12]
  activity at 100 µM: 104%
Aβ42 secretion [4]; [13]
  activity at 100 µM: 93%
Aβ42 secretion [4]; [14]
  activity at 100 µM: 99%

## CC(C)Cc1ccc(C(C)C(=O)O)cc1 (stereo not shown) [Ibuprofen, ibuprofen]
[5]; 500 μM
  inhibition of Notch cleavage: did not cause
[1]
  Plasma: 40 to 111 µM
APP processing; 500 μM
  accumulation of APP-CTFs: did not cause
Aβ42 secretion [4]; [15]
  activity at 10 µM: 82%
Aβ42 secretion [4]; [16]
  activity at 10 µM: 102%
Aβ42 secretion [4]; [17]
  activity at 10 µM: 80%
Aβ42 secretion [4]; [12]
  activity at 100 µM: 81%
Aβ42 secretion [4]; [13]
  activity at 100 µM: 95%
Aβ42 secretion [4]; [14]
  activity at 100 µM: 74%
Aβ levels in the brain
  Aβ levels in the brain, lower when treated than untreated: about 38%
[6]; [18]
  Brain levels of Aβ40: 2620 ± 246 fmol/gm
  Brain levels of Aβ42: 734 ± 302 fmol/gm
[6]; three month-old, 50 mg/kg/day orally for three days, mean ± SD
  % Aβ42 in brain: 21.5 ± 7.7 %
[6]; [19]
  Aβ40 levels in the brain: no change
  reduction in Aβ42 levels in the brain: approximately 30%
Aβ42 secretion [7]; concentrations up to 500 μM
  total Aβ levels: not significantly affected

## COc1ccc2c(c1)c(CC(=O)O)c(C)n2C(=O)c1ccc(Cl)cc1 [Indomethacin, indomethacin]
[5]; 150 μM
  inhibition of Notch cleavage: did not cause
APP processing; 150 μM
  accumulation of APP-CTFs: did not cause
Aβ42 secretion [4]; [12]
  activity at 100 µM: 68%
Aβ42 secretion [4]; [13]
  activity at 100 µM: 101%
Aβ42 secretion [4]; [14]
  activity at 100 µM: 69%
Aβ42 secretion [7]; concentrations up to 100 μM
  total Aβ levels: not significantly affected

## CS(=O)(=O)Nc1ccc([N+](=O)[O-])cc1OC1CCCCC1 [NS-398]
COX-1/COX-2
  COX-1/COX-2 selectivity# (1 = equal activity): .07
Aβ42 secretion [2]; [20]
  Aβ42/Aβ40 ratios: did not affect
  total Aβ levels: did not affect
Aβ42 secretion [2]
  Aβ42/Aβ40 ratio: no effect
Aβ42 secretion [4]; [15]
  activity at 10 µM: 132%
Aβ42 secretion [4]; [16]
  activity at 10 µM: 101%
Aβ42 secretion [4]; [17]
  activity at 10 µM: 146%

## CS(=O)(=O)c1ccc(C2=C(c3ccccc3)C(=O)OC2)cc1 [Rofecoxib, rofecoxib]
COX-1/COX-2
  COX-1/COX-2 selectivity# (1 = equal activity): .001
[1]
  Plasma: 0.003 µM
Aβ42 secretion [2]
  Aβ42/Aβ40 ratio: no effect
Aβ42 secretion [3]; CHO cells expressing APP751, 20 μM
  Aβ42/Aβ40 ratio: not seen

## CSc1ccc(/C=C2/C(C)=C(CC(=O)O)c3cc(F)ccc32)cc1 [Sulindac sulfide, sulindac sulfide]
[5]; 125 μM for 36 hours, HEK293 cells transfected with NotchΔEMV
  Notch cleavage and NICD formation: did not impair Notch cleavage and NICD formation
Aβ42 secretion [8]
  Aβ42 secretion: reduced Aβ42 secretion
[1]
  Plasma: 14.6 µM
APP processing; compared with DMSO
  CTF levels (western blot, CT15): nor an increase in CTF levels was observed
  steady-state APP levels (western blot, CT15): neither a change in APP levels
APP processing; increasing concentrations, 5A3/1G7 antibodies
  secretion of the APP ectodomain (sAPP): no significant change
CHO or HS683 cells
  cell toxicity: No cell toxicity was observed
Aβ42 secretion [4]; read-out: % Control % Aβ42
  activity at 10 µM: 65%
Aβ42 secretion [4]; read-out: % Control Aβ40
  activity at 10 µM: 97%
Aβ42 secretion [4]; read-out: % Control Aβ42
  activity at 10 µM: 57%
Aβ42 secretion [9]
  Aβ42 secretion: reduced Aβ42 secretion
Aβ species [10]; 75-100 μM
  Aβ42 secretion (mass spectrometry): strong reduction
  levels of Aβ40 (mass spectrometry): largely unaffected
Aβ species [10]; 75 or 100 μM
  increases in Aβ1-38 levels: dose-dependent
Aβ species [10]; compared with DMSO
  other Aβ peptide levels: did not vary consistently
Aβ species [11]
  immuno-reactive band corresponding to Aβ1-38: equivalent increase in the intensity
  immuno-reactive band corresponding to Aβ42: reduction in the intensity
Aβ42 secretion [7]; sulindac sulfide concentrations of FIG. 1
  total Aβ level (sum of Aβ40 and Aβ42): No significant reduction
